Measured values published in patent publication US11028090B2 (Dong Wha Pharm. Co., Ltd., priority 2017, dated 2021).
Read-outs that look alike come from different tables or passages of the source.

What was measured:
[1] = biological target: BRD4 (BD1+BD2) bromodomain (Homo sapiens (Human), UniProt O60885); assay: BRD4 binding inhibition (AlphaScreen, GST-BRD4 vs tetraacetylated histone H4 peptide)
Outline: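 AlphaScreen read after 30 min dark incubation at room temperature with glutathione acceptor/streptavidin donor beads (10 μg/ml each). The beads were added to compound plus 100 nM biotin-H4 (K5,8,12,16-acetyl) peptide and 100 nM GST-BRD4 BD1+BD2 in pH 7.4 HEPES/Tween/BSA/DTT buffer.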

[2] = tested on: thymus cancer cells (Ty-82 cells); assay: Cytotoxicity to thymus cancer cells (Ty-82 cells), WST-1; settings: Homo sapiens, TY82, 72 h
[3] = tested on: acute myelogenous leukemia cells (MV-4-11 cells); assay: Cytotoxicity to acute myelogenous leukemia cells (MV-4-11 cells), CCK-8; settings: Homo sapiens, MV4-11, 72 h
[4] = GST-BRD4 (BD1+BD2) / biotinylated acetyl-histone H4 (Lys5,8,12,16) peptide, read-out: IC50, BRD4 binding inhibition
[5] = GST-BRD4 (BD1+BD2) vs biotinylated acetyl-histone H4 peptide, AlphaScreen, read-out: BRD4 IC50
[6] = read-out: IC50, cytotoxicity against thymus cancer cells
[7] = read-out: Ty-82 Cytotoxicity IC50
[8] = read-out: IC50, cytotoxicity against acute myelogenous leukemia cells
[9] = read-out: MV-4-11 Cytotoxicity IC50

| SMILES | IC50 [1, 4] [nM] | IC50 [1, 5] [nM] | IC50 [2, 6] [nM] | IC50 [2, 7] [nM] | IC50 [3, 8] [nM] | IC50 [3, 9] [nM] | IC50 ([1]; IC50, BRD4 binding inhibition, GST-BRD4 (BD1+BD2) / biotinylated acetyl-histone H4 (Lys5,8,12,16) peptide) [nM] |
| --- | --- | --- | --- | --- | --- | --- | --- |
| COc1cc2nc(NCCCCNC(=O)CC(C)C)c3nnc(C)n3c2cc1OC [Example 74, N-[4-(7,8-dimethoxy-1-methyl-[1,2,4]triazolo[4,3-a]quinoxaline-4-ylamino)-butyl]-3-methyl-butyramide] | ≤ 50 | 28 | ≤ 500 | 170 | ≤ 200 | 110 |  |
| COc1cc2nc(NCCCCNC(=O)CC(C)(C)C)c3nnc(C)n3c2cc1OC [Example 75, N-[4-(7,8-dimethoxy-1-methyl-[1,2,4]triazolo[4,3-a]quinoxaline-4-ylamino)-butyl]-3,3-dimethyl-butyramide] | ≤ 50 | 28 |  | 790 |  | 340 |  |
| CCC(C)C(=O)NCCCCNc1nc2cc(OC)c(OC)cc2n2c(C)nnc12 (centres unmarked) [Example 77, N-[4-(7,8-dimethoxy-1-methyl-[1,2,4]triazolo[4,3-a]quinoxaline-4-ylamino)-butyl]-2-methyl-butyramide] | ≤ 50 | 22 |  | 920 | ≤ 200 | 150 |  |
| COc1cc2nc(NCCCCNC(=O)Cc3cccs3)c3nnc(C)n3c2cc1OC [Example 84, N-[4-(7,8-dimethoxy-1-methyl-[1,2,4]triazolo[4,3-a]quinoxaline-4-ylamino)-butyl]-2-thiophene-2-yl-acetamide] | ≤ 50 | 14 | ≤ 500 | 27 | ≤ 200 | 10 |  |
| COc1cc2nc(NCCCCNC(=O)NC(C)(C)C)c3nnc(C)n3c2cc1OC [Example 88, 1-tert-butyl-3-[4-(7,8-dimethoxy-1-methyl-[1,2,4]triazolo[4,3-a]quinoxaline-4-ylamino)-butyl]-urea] | ≤ 50 | 18 |  | 970 |  | 510 |  |
| COc1cc2nc(NCCCCNC(=O)NC(C)C)c3nnc(C)n3c2cc1OC [Example 90] |  | 63 | ≤ 500 | 400 |  | 300 |  |
| COc1cc2nc(NCCCCNC(=O)NC3CCCCC3)c3nnc(C)n3c2cc1OC [Example 93, 1-cyclohexyl-3-[4-(7,8-dimethoxy-1-methyl-[1,2,4]triazolo[4,3-a]quinoxaline-4-ylamino)-butyl]-urea] | ≤ 50 | 39 |  | 560 |  | 340 |  |
| COc1cc2nc(NCCCCNC(=O)c3ccccc3Cl)c3nnc(C)n3c2cc1OC [Example 99, 2-chloro-N-[4-(7,8-dimethoxy-1-methyl-[1,2,4]triazolo[4,3-a]quinoxaline-4-ylamino)-butyl]-benzamide] | ≤ 50 | 21 |  | 550 |  | 230 |  |
| COc1cc2nc(NCCCCNC(=O)c3cccc(Cl)c3Cl)c3nnc(C)n3c2cc1OC [Example 102, 2,3-dichloro-N-[4-(7,8-dimethoxy-1-methyl-[1,2,4]triazolo[4,3-a]quinoxaline-4-ylamino)-butyl]-benzamide] | ≤ 50 |  |  | 840 |  | 360 |  |
| COc1cc2nc(NCCCCNC(=O)c3ccc(C)nc3Cl)c3nnc(C)n3c2cc1OC [Example 108, 2-chloro-N-[4-(7,8-dimethoxy-1-methyl-[1,2,4]triazolo[4,3-a]quinoxaline-4-ylamino)-butyl]-6-methyl-nicotinamide] | ≤ 50 | 17 | ≤ 500 | 370 |  | 510 |  |
| COc1c(C)ccc2c1nc(NCCCCNC(=O)CC(C)C)c1nnc(C)n12 [Example 135, N-[4-(6-methoxy-1,7-dimethyl-[1,2,4]triazolo[4,3-a]quinoxaline-4-ylamino)-butyl]-3-methyl-butyramide] |  | 61 |  | 730 |  | 360 |  |
| COc1cc(C)c2nc(NCCCCNC(=O)OC(C)C)c3nnc(C)n3c2c1 [Example 161, [4-(8-methoxy-1,6-dimethyl-[1,2,4]triazolo[4,3-a]quinoxaline-4-ylamino)-butyl]-carbamic acid isopropylester] | ≤ 10 |  |  | 810 | ≤ 200 | 80 |  |
| COCCOc1cc2nc(NCCCCNC(=O)OC(C)C)c3nnc(C)n3c2cc1OCCOC [Example 165, {4-[7,8-bis-(2-methoxy-ethoxy)-1-methyl-[1,2,4]triazolo[4,3-a]quinoxaline-4-ylamino]-butyl}-carbamic acid isopropylester] | ≤ 50 | 26 |  | 580 |  | 220 |  |
| COCCOc1cc2nc(NCCCCNC(=O)CC(C)C)c3nnc(C)n3c2cc1OCCOC [Example 166, N-{4-[7,8-bis-(2-methoxy-ethoxy)-1-methyl-[1,2,4]triazolo[4,3-a]quinoxaline-4-ylamino]-butyl}-3-methyl-butyramide] | ≤ 50 | 20 |  | 580 | ≤ 200 | 70 |  |
| COCCOc1cc2nc(NCCCCNC(=O)CC(C)(C)C)c3nnc(C)n3c2cc1OCCOC [Example 167, N-{4-[7,8-bis-(2-methoxy-ethoxy)-1-methyl-[1,2,4]triazolo[4,3-a]quinoxaline-4-ylamino]-butyl}-3,3-dimethyl-butyramide] | ≤ 50 | 40 |  | 880 |  | 510 |  |
| COCCOc1cc2nc(NCCCCNC(=O)OCC(C)C)c3nnc(C)n3c2cc1OCCOC [Example 168, {4-[7,8-bis-(2-methoxy-ethoxy)-1-methyl-[1,2,4]triazolo[4,3-a]quinoxaline-4-ylamino]-butyl}-carbamic acid isobutylester] | ≤ 50 | 16 |  | 600 | ≤ 200 | 90 |  |
| Cc1nnc2c(NCCCCNC(=O)CC(C)C)nc3cc4c(cc3n12)OCCO4 [Example 181, 3-methyl-N-[4-(1-methyl-8,9-dihydro-7,10-dioxa-2,3,5,11b-tetraaza-cyclopenta[a]anthracene-4-ylamino)-butyl]-butyramide] | ≤ 50 | 17 | ≤ 500 | 300 | ≤ 200 | 50 |  |
| Cc1nnc2c(NCCCCNC(=O)c3ccccc3)nc3cc4c(cc3n12)OCCO4 [Example 186, N-[4-(1-methyl-8,9-dihydro-7,10-dioxa-2,3,5,11b-tetraaza-cyclopenta[a]anthracene-4-ylamino)-butyl]-benzamide] | ≤ 50 | 22 | ≤ 500 | 340 |  | 680 |  |
| Cc1nnc2c(NCCCCNC(=O)OC3CCCC3)nc3cc4c(cc3n12)OCCO4 [Example 190, [4-(1-methyl-8,9-dihydro-7,10-dioxa-2,3,5,11b-tetraaza-cyclopenta[a]anthracene-4-ylamino)-butyl]-carbamic acid cyclopentylester] | ≤ 50 | 28 |  | 650 | ≤ 200 | 90 |  |
| Cc1nnc2c(NCCCCNC(=O)Oc3ccccc3)nc3cc4c(cc3n12)OCCO4 [Example 191, [4-(1-methyl-8,9-dihydro-7,10-dioxa-2,3,5,11b-tetraaza-cyclopenta[a]anthracene-4-ylamino)-butyl]-carbamic acid phenylester] |  | 10 | ≤ 500 | 310 | ≤ 200 | 90 | ≤ 10 |
| Cc1nnc2c(NCCCCNC(=O)NC(C)C)nc3cc4c(cc3n12)OCCO4 [Example 192, 1-isopropyl-3-[4-(1-methyl-8,9-dihydro-7,10-dioxa-2,3,5,11b-tetraaza-cyclopenta[a]anthracene-4-ylamino)-butyl]-urea] | ≤ 50 | 34 |  | 680 |  | 420 |  |
| COc1ccc2c(c1)nc(NCCCCNC(=O)OC(C)C)c1nnc(C)n12 [Example 278, [4-(7-methoxy-1-methyl-[1,2,4]triazolo[4,3-a]quinoxaline-4-ylamino)-butyl]-carbamic acid isopropylester] |  | 51 | ≤ 500 | 180 | ≤ 200 | 160 |  |
| COc1ccc2c(c1)nc(NCCCCNC(=O)OCC(C)C)c1nnc(C)n12 [Example 279, [4-(7-methoxy-1-methyl-[1,2,4]triazolo[4,3-a]quinoxaline-4-ylamino)-butyl]-carbamic acid isobutylester] | ≤ 50 | 18 | ≤ 500 | 120 | ≤ 200 | 140 |  |
| COc1ccc2c(c1)nc(NCCCCNC(=O)CC(C)C)c1nnc(C)n12 [Example 285, N-[4-(7-methoxy-1-methyl-[1,2,4]triazolo[4,3-a]quinoxaline-4-ylamino)-butyl]-3-methyl-butyramide] | ≤ 50 | 17 | ≤ 500 | 91 | ≤ 200 | 10 |  |
| COc1cc2nc(NCCCCNC(=O)OC(C)C)c3nnc(C)n3c2cc1C [Example 467, [4-(7-methoxy-1,8-dimethyl-[1,2,4]triazolo[4,3-a]quinoxaline-4-ylamino)-butyl]-carbamic acid isopropylester] | ≤ 50 | 23 | ≤ 500 | 200 | ≤ 200 | 66 |  |
